Measurements: US20110166121A1 (LG LIFE SCIENCES LTD., priority 2008, published 2011)

Tested on: Human platelet aggregation caused by ADP
Experiment: Inhibition of ADP-induced platelet aggregation (Mimic-human PRP)
Type: cell-based
Conditions: 20 μM ADP, human platelet concentrate diluted with PPP, absorption at 595 nm
Summary of the method: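 Human PRP diluted with PPP to 3–4×10^8 platelets/mL was preincubated 20 min at room temperature with compound (0.01–30 μM, DMSO), then stimulated with 20 μM ADP. Aggregation read as A595 increase at 3 min versus 0 and 20 μM ADP controls; Ki from sigmoidal non-linear regression.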

Compound | Ki [nM]
CCCc1cc2c(N3CCn4c(nnc4C(F)(F)F)C3)nc(OC[C@H]3CCCN3C(=O)C(C)C)nc2s1 [Example 8-30, 2-Methyl-1-{(R)-2-[6-propyl-4-(3-trifluoromethyl-5,6-dihydro-8H-[1,2,4]triazolo[4,3-a]pyrazin-7-yl)-thieno[2,3-d]pyrimidin-2-yloxymethyl]-pyrrolidin-1-yl}-propan-1-one] | 140
CCCc1cc2c(N3CCn4c(nnc4C(F)(F)F)C3)nc(OC[C@@H]3CCCN3C(C)=O)nc2s1 [Example 8-31, 1-{(S)-2-[6-Propyl-4-(3-trifluoromethyl-5,6-dihydro-8H-[1,2,4]triazolo[4,3-a]pyrazin-7-yl)-thieno[2,3-d]pyrimidin-2-yloxymethyl]-pyrrolidin-1-yl}-ethanone] | 19
CCCC(=O)N1CCC[C@H]1COc1nc(N2CCn3c(nnc3C(F)(F)F)C2)c2cc(CCC)sc2n1 [Example 8-32, 1-{(S)-2-[6-Propyl-4-(3-trifluoromethyl-5,6-dihydro-8H-[1,2,4]triazolo[4,3-a]pyrazin-7-yl)-thieno[2,3-d]pyrimidin-2-yloxymethyl]-pyrrolidin-1-yl}-butan-1-one] | 62
CCCc1cc2c(N3CCn4c(nnc4C(F)(F)F)C3)nc(OC[C@@H]3CCCN3C(=O)C(C)C)nc2s1 [Example 8-33, 2-Methyl-1-{(S)-2-[6-propyl-4-(3-trifluoromethyl-5,6-dihydro-8H-[1,2,4]triazolo[4,3-a]pyrazin-7-yl)-thieno[2,3-d]pyrimidin-2-yloxymethyl]-pyrrolidin-1-yl}-propan-1-one] | 43
CCCc1cc2c(N3CCn4c(nnc4C(F)(F)F)C3)nc(OC[C@@H]3CCN(C(C)=O)C3)nc2s1 [Example 8-34, 1-{(R)-3-[6-Propyl-4-(3-trifluoromethyl-5,6-dihydro-8H-[1,2,4]triazolo[4,3-a]pyrazin-7-yl)-thieno[2,3-d]pyrimidin-2-yloxymethyl]-pyrrolidin-1-yl}-ethanone] | 45
CCCC(=O)N1CC[C@@H](COc2nc(N3CCn4c(nnc4C(F)(F)F)C3)c3cc(CCC)sc3n2)C1 [Example 8-35, 1-{(R)-3-[6-Propyl-4-(3-trifluoromethyl-5,6-dihydro-8H-[1,2,4]triazolo[4,3-a]pyrazin-7-yl)-thieno[2,3-d]pyrimidin-2-yloxymethyl]-pyrrolidin-1-yl}-butan-1-one] | 49
CCCc1cc2c(N3CCn4c(nnc4C(F)(F)F)C3)nc(OC[C@@H]3CCN(C(=O)C(C)C)C3)nc2s1 [Example 8-36, 2-Methyl-1-{(R)-3-[6-propyl-4-(3-trifluoromethyl-5,6-dihydro-8H-[1,2,4]triazolo[4,3-a]pyrazin-7-yl)-thieno[2,3-d]pyrimidin-2-yloxymethyl]-pyrrolidin-1-yl}-propan-1-one] | 45
CCCc1cc2c(N3CCn4c(nnc4C(F)(F)F)C3)nc(OC[C@H]3CCN(C(C)=O)C3)nc2s1 [Example 8-37, 1-{(S)-3-[6-Propyl-4-(3-trifluoromethyl-5,6-dihydro-8H-[1,2,4]triazolo[4,3-a]pyrazin-7-yl)-thieno[2,3-d]pyrimidin-2-yloxymethyl]-pyrrolidin-1-yl}-ethanone] | 43
CCCC(=O)N1CC[C@H](COc2nc(N3CCn4c(nnc4C(F)(F)F)C3)c3cc(CCC)sc3n2)C1 [Example 8-38, 1-{(S)-3-[6-Propyl-4-(3-trifluoromethyl-5,6-dihydro-8H-[1,2,4]triazolo[4,3-a]pyrazin-7-yl)-thieno[2,3-d]pyrimidin-2-yloxymethyl]-pyrrolidin-1-yl}-butan-1-one] | 110
CCCc1cc2c(N3CCn4c(nnc4C(F)(F)F)C3)nc(OC[C@H]3CCN(C(=O)C(C)C)C3)nc2s1 [Example 8-39, 2-Methyl-1-{(S)-3-[6-propyl-4-(3-trifluoromethyl-5,6-dihydro-8H-[1,2,4]triazolo[4,3-a]pyrazin-7-yl)-thieno[2,3-d]pyrimidin-2-yloxymethyl]-pyrrolidin-1-yl}-propan-1-one] | 76
CCCc1cc2c(N3CCn4c(nnc4C(F)(F)F)C3)nc(N3CC(O)C(NC(=O)OCC)C3)nc2s1 (centres unmarked) [Example 9-1, {4-Hydroxy-1-[6-propyl-4-(3-trifluoromethyl-5,6-dihydro-8H-[1,2,4]triazolo[4,3-a]pyrazin-7-yl)-thieno[2,3-d]pyrimidin-2-yl]-pyrrolidin-3-yl}-carbamic acid ethyl ester] | 18
CCCc1cc2c(N3CCn4c(nnc4C(F)(F)F)C3)nc(N3CC(O)C(NC(=O)OC)C3)nc2s1 (centres unmarked) [Example 9-2, {4-Hydroxy-1-[6-propyl-4-(3-trifluoromethyl-5,6-dihydro-8H-[1,2,4]triazolo[4,3-a]pyrazin-7-yl)-thieno[2,3-d]pyrimidin-2-yl]-pyrrolidin-3-yl}-carbamic acid methyl ester] | 8
CCCc1cc2c(N3CCn4c(nnc4C(F)(F)F)C3)nc(N3CC[C@H](NC(=O)Oc4ccc(F)cc4)C3)nc2s1 [Example 9-4, {(S)-1-[6-Propyl-4-(3-trifluoromethyl-5,6-dihydro-8H-[1,2,4]triazolo[4,3-a]pyrazin-7-yl)-thieno[2,3-d]pyrimidin-2-yl]-pyrrolidin-3-yl}-carbamic acid 4-fluoro-phenyl ester] | 280
CCCc1cc2c(N3CCn4c(nnc4C(F)(F)F)C3)nc(N3CC[C@H](NC(=O)C4CCCC4)C3)nc2s1 [Example 9-5, Cyclopentanecarboxylic Acid {(S)-1-[6-propyl-4-(3-trifluoromethyl-5,6-dihydro-8H-[1,2,4]triazolo[4,3-a]pyrazin-7-yl)-thieno[2,3-d]pyrimidin-2-yl]-pyrrolidin-3-yl}-amide] | 130
CCCc1cc2c(N3CCn4c(nnc4C(F)(F)F)C3)nc(N3CC[C@H](NC(=O)C4CCCCC4)C3)nc2s1 [Example 9-9, Cyclohexanecarboxylic Acid {(S)-1-[6-propyl-4-(3-trifluoromethyl-5,6-dihydro-8H-[1,2,4]triazolo[4,3-a]pyrazin-7-yl)-thieno[2,3-d]pyrimidin-2-yl]-pyrrolidin-3-yl}-amide] | 300
CCCc1cc2c(N3CCn4c(nnc4C(F)(F)F)C3)nc(N3CC[C@H](NC(=O)c4ccc(Cl)s4)C3)nc2s1 [Example 9-11, 5-Chloro-thiophene-2-carboxylic Acid {(S)-1-[6-propyl-4-(3-trifluoromethyl-5,6-dihydro-8H-[1,2,4]triazolo[4,3-a]pyrazin-7-yl)-thieno[2,3-d]pyrimidin-2-yl]-pyrrolidin-3-yl}-amide] | 48
CCCc1cc2c(N3CCn4c(nnc4C(F)(F)F)C3)nc(N3CC[C@H](NC(=O)c4cc(F)c(F)c(F)c4)C3)nc2s1 [Example 9-13, 3,4,5-Trifluoro-N-{(S)-1-[6-propyl-4-(3-trifluoromethyl-5,6-dihydro-8H-[1,2,4]triazolo[4,3-a]pyrazin-7-yl)-thieno[2,3-d]pyrimidin-2-yl]-pyrrolidin-3-yl}-benzamide] | 300
CCCc1cc2c(N3CCn4c(nnc4C(F)(F)F)C3)nc(N3CC[C@H](NC(=O)NC4CCCC4)C3)nc2s1 [Example 9-15, 1-Cyclopentyl-3-{(S)-1-[6-propyl-4-(3-trifluoromethyl-5,6-dihydro-8H-[1,2,4]triazolo[4,3-a]pyrazin-7-yl)-thieno[2,3-d]pyrimidin-2-yl]-pyrrolidin-3-yl}-urea] | 42
CCCc1cc2c(N3CCn4c(nnc4C(F)(F)F)C3)nc(N3CC[C@H](NC(=O)Nc4ccc(F)c(F)c4)C3)nc2s1 [Example 9-16, 1-(3,4-Difluoro-phenyl)-3-{(S)-1-[6-propyl-4-(3-trifluoromethyl-5,6-dihydro-8H-[1,2,4]triazolo[4,3-a]pyrazin-7-yl)-thieno[2,3-d]pyrimidin-2-yl]-pyrrolidin-3-yl}-urea] | 880
CCCc1cc2c(N3CCn4c(nnc4C(F)(F)F)C3)nc(N3CC[C@H](NC(=O)NS(=O)(=O)c4ccc(Cl)s4)C3)nc2s1 [Example 9-17] | 19
CCCc1cc2c(N3CCn4c(nnc4C(F)(F)F)C3)nc(N3CC[C@H](NC(=O)OC)C3)nc2s1 [Example 9-18, {(S)-1-[6-Propyl-4-(3-trifluoromethyl-5,6-dihydro-8H-[1,2,4]triazolo[4,3-a]pyrazin-7-yl)-thieno[2,3-d]pyrimidin-2-yl]-pyrrolidin-3-yl}-carbamic acid methyl ester] | 10
CCCc1cc2c(N3CCn4c(nnc4C(F)(F)F)C3)nc(OCCNC(=O)OC)nc2s1 [Example 9-19, {2-[6-Propyl-4-(3-trifluoromethyl-5,6-dihydro-8H-[1,2,4]triazolo[4,3-a]pyrazin-7-yl)-thieno[2,3-d]pyrimidin-2-yloxy]-ethyl}-carbamic acid methyl ester] | 3
CCCc1cc2c(N3CCn4c(nnc4C(F)(F)F)C3)nc(N3CC[C@@H](NC(=O)OC)C3)nc2s1 [Example 9-20, {(R)-1-[6-Propyl-4-(3-trifluoromethyl-5,6-dihydro-8H-[1,2,4]triazolo[4,3-a]pyrazin-7-yl)-thieno[2,3-d]pyrimidin-2-yl]-pyrrolidin-3-yl}-carbamic acid methyl ester] | 6
CCCc1cc2c(N3CCn4c(nnc4C(F)(F)F)C3)nc(N3CC[C@H](NC=O)C3)nc2s1 [Example 9-21, N-{(S)-1-[6-Propyl-4-(3-trifluoromethyl-5,6-dihydro-8H-[1,2,4]triazolo[4,3-a]pyrazin-7-yl)-thieno[2,3-d]pyrimidin-2-yl]-pyrrolidin-3-yl}-formamide] | 6
CCCc1cc2c(N3CCn4c(nnc4C(F)(F)F)C3)nc(N3CC[C@@H](NC=O)C3)nc2s1 [Example 9-22, N-{(R)-1-[6-Propyl-4-(3-trifluoromethyl-5,6-dihydro-8H-[1,2,4]triazolo[4,3-a]pyrazin-7-yl)-thieno[2,3-d]pyrimidin-2-yl]-pyrrolidin-3-yl}-formamide] | 15
CCCc1cc2c(N3CCn4c(nnc4C(F)(F)F)C3)nc(OCCNC=O)nc2s1 [Example 9-23, N-{2-[6-Propyl-4-(3-trifluoromethyl-5,6-dihydro-8H-[1,2,4]triazolo[4,3-a]pyrazin-7-yl)-thieno[2,3-d]pyrimidin-2-yloxy]-ethyl}-formamide] | 3
